Laboratory results as given in patent publication US20070004660A1, “Synergistic Modulation of Flt3 Kinase Using Alkylquinolines and Alkylquinazolines” (priority 2005, published 2007).
Structures can show the parent of a compound that is named as a salt.

Experiments:
[1] = target: T1, isolated kinase domain of the human FLT3 receptor (a.a. 571-993) (Homo sapiens, UniProt P36888); assay: FLT3 fluorescence polarization kinase assay; format: biochemical; settings: 150 uM ATP; uncertainty ±10%
T1 construct: human FLT3 receptor (a.a. 571-993)
T1 sequence (P36888 571-993): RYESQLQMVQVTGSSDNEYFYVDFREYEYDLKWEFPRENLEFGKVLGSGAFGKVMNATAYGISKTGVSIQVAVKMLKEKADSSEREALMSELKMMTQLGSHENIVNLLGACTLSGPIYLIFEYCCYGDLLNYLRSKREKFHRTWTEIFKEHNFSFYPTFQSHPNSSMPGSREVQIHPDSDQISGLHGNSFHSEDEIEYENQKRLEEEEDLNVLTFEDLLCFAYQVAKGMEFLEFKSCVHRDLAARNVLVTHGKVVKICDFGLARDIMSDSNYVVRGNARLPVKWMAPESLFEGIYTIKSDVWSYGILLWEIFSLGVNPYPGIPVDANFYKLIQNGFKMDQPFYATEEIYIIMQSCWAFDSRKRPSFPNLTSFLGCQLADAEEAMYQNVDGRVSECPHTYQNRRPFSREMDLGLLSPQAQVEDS

MV4-11 cells = assay: Inhibition of MV4-11 cell proliferation (CellTiterGlo, 72 h); format: cell-based; settings: Homo sapiens; 72 h growth inhibition; uncertainty ±20%

IC50 [1] [nM] | IC50 (MV4-11 cells) [nM] | SMILES
27 | 125 | CN1CCN(c2ccc3c(C4CCN(C(=O)Nc5ccc(N6CCOCC6)cc5)CC4)ncnc3c2)CC1 [Example 135, 4-[7-(4-Methyl-piperazin-1-yl)-quinazolin-4-yl]-piperidine-1-carboxylic acid (4-morpholin-4-yl-phenyl)-amide]
4400 | > 10000 | COc1cc2ncnc(C3CCN(C(=O)Nc4ccc(CO)cc4)CC3)c2cc1OC [Example 22, 4-(6,7-Dimethoxy-quinazolin-4-yl)-piperidine-1-carboxylic acid (4-hydroxymethyl-phenyl)-amide]
3 | 18 | O=C1CN(c2ccc3c(C4CCN(C(=O)Nc5ccc(N6CCCC6)cc5)CC4)ncnc3c2)CCN1 [Compound 183, 4-[7-(3-Oxo-piperazin-1-yl)-quinazolin-4-yl]-piperidine-1-carboxylic acid (4-pyrrolidin-1-yl-phenyl)-amide]
46 | 88 | COc1cc2ncnc(C3CCN(C(=O)Nc4ccc(OC(C)C)cc4)CC3)c2cc1OC [Example 1, 4-(6,7-Dimethoxy-quinazolin-4-yl)-piperidine-1-carboxylic acid (4-isopropoxy-phenyl)-amide hydrochloride]
15 | 63 | CC(=O)N1CC[C@@H](Oc2ccc3c(C4CCN(C(=O)Nc5ccc(N6CCCC6)cc5)CC4)ncnc3c2)C1 [Example 154, (R)-4-[7-(1-Acetyl-pyrrolidin-3-yloxy)-quinazolin-4-yl]-piperidine-1-carboxylic acid (4-pyrrolidin-1-yl-phenyl)-amide]
291 | 75 | O=C(Nc1ccc(N2CCOCC2)cc1)N1CCC(c2ncnc3cc(N4CCC(F)CC4)ccc23)CC1 [Compound 196, 4-[7-(4-Fluoro-piperidin-1-yl)-quinazolin-4-yl]-piperidine-1-carboxylic acid (4-morpholin-4-yl-phenyl)-amide]
45 | 170 | O=C(Nc1ccc(N2CCOCC2)cc1)N1CCC(c2ncnc3cc(N4CCNCC4)ccc23)CC1 [Example 140, 4-(7-Piperazin-1-yl-quinazolin-4-yl)-piperidine-1-carboxylic acid (4-morpholin-4-yl-phenyl)-amide]
27 | 51 | O=C(Nc1ccc(N2CCCC2)cc1)N1CCC(c2ncnc3cc(OCCN4CCOC4=O)ccc23)CC1 [Example 147, 4-{7-[2-(2-Oxo-oxazolidin-3-yl)-ethoxy]-quinazolin-4-yl}-piperidine-1-carboxylic acid (4-pyrrolidin-1-yl-phenyl)-amide]
290 | 97 | CC(=O)N1CC(Oc2ccc3c(C4CCN(C(=O)Nc5ccc(N6CCCC6)cc5)CC4)ncnc3c2)C1 [Example 170, 4-[7-(1-Acetyl-azetidin-3-yloxy)-quinazolin-4-yl]-piperidine-1-carboxylic acid (4-pyrrolidin-1-yl-phenyl)-amide]
163 | 17 | O=C(Nc1ccc(N2CCCC2)cc1)N1CCC(c2ncnc3cc(N4CCC(F)CC4)ccc23)CC1 [Compound 195, 4-[7-(4-Fluoro-piperidin-1-yl)-quinazolin-4-yl]-piperidine-1-carboxylic acid (4-pyrrolidin-1-yl-phenyl)-amide]
32 | 32 | O=C(Nc1ccc(N2CCCC2)cc1)N1CCC(c2ncnc3cc(OCCO)ccc23)CC1 [Example 169, 4-[7-(2-Hydroxy-ethoxy)-quinazolin-4-yl]-piperidine-1-carboxylic acid (4-pyrrolidin-1-yl-phenyl)-amide]
102 | 8 | O=C(Nc1ccc(N2CCCC2)cc1)N1CCC(c2ncnc3cc(N4CCOC4=O)ccc23)CC1 [Example 176, 4-[7-(2-Oxo-oxazolidin-3-yl)-quinazolin-4-yl]-piperidine-1-carboxylic acid (4-pyrrolidin-1-yl-phenyl)-amide]
25 | 163 | CCN1CCN(c2ccc3c(C4CCN(C(=O)Nc5ccc(N6CCOCC6)cc5)CC4)ncnc3c2)CC1 [Example 136, 4-[7-(4-Ethyl-piperazin-1-yl)-quinazolin-4-yl]-piperidine-1-carboxylic acid (4-morpholin-4-yl-phenyl)-amide]
216 | 71 | O=C(Nc1ccc(N2CCCC2)cc1)N1CCC(c2ncnc3cc(O[C@@H]4CCOC4)ccc23)CC1 [Compound 191, (R)-4-[7-(Tetrahydro-furan-3-yloxy)-quinazolin-4-yl]-piperidine-1-carboxylic acid (4-pyrrolidin-1-yl-phenyl)-amide]
62 | 193 | CN1CCC[C@H]1COc1ccc2c(C3CCN(C(=O)Nc4ccc(N5CCCC5)cc4)CC3)ncnc2c1 [Example 151, (S)-4-[7-(1-Methyl-pyrrolidin-2-ylmethoxy)-quinazolin-4-yl]-piperidine-1-carboxylic acid (4-pyrrolidin-1-yl-phenyl)-amide]
8 | 13 | CNC(=O)C1CCN(c2ccc3c(C4CCN(C(=O)Nc5ccc(N6CCCC6)cc5)CC4)ncnc3c2)CC1 [Example 155, 4-[7-(4-Carboxylic acid methylamide-piperidin-1-yl)-quinazolin-4-yl]-piperidine-1-carboxylic acid (4-pyrrolidin-1-yl-phenyl)-amide]
542 | 248 | O=C(COc1ccc2c(C3CCN(C(=O)Nc4ccc(N5CCCC5)cc4)CC3)ncnc2c1)N1CCOCC1 [Example 172, 4-[7-(2-Morpholin-4-yl-2-oxo-ethoxy)-quinazolin-4-yl]-piperidine-1-carboxylic acid (4-pyrrolidin-1-yl-phenyl)-amide]
7 | 6 | CN1CCN(c2ccc3c(C4CCN(C(=O)Nc5ccc(N6CCCC6)cc5)CC4)ncnc3c2)CC1 [Example 159, 4-[7-(4-Methyl-piperazin-1-yl)-quinazolin-4-yl]-piperidine-1-carboxylic acid (4-pyrrolidin-1-yl-phenyl)-amide]
90 | 74 | CN1CCN(CCOc2ccc3c(C4CCN(C(=O)Nc5ccc(N6CCCC6)cc5)CC4)ncnc3c2)CC1=O [Compound 202, 4-{7-[2-(4-Methyl-3-oxo-piperazin-1-yl)-ethoxy]-quinazolin-4-yl}-piperidine-1-carboxylic acid (4-pyrrolidin-1-yl-phenyl)-amide]
244 | 58 | CN1CCN(c2ccc3c(C4CCN(C(=O)Nc5ccc(N6CCCC6)cc5)CC4)ncnc3c2)CC1=O [Compound 184, 4-[7-(4-Methyl-3-oxo-piperazin-1-yl)-quinazolin-4-yl]-piperidine-1-carboxylic acid (4-pyrrolidin-1-yl-phenyl)-amide]
63 | 78 | CN1CCN(CCCOc2cc3ncnc(C4CCN(C(=O)Nc5ccc(N6CCOCC6)cc5)CC4)c3cc2F)CC1 [Compound 205, 4-{6-Fluoro-7-[3-(4-methyl-piperazin-1-yl)-propoxy]-quinazolin-4-yl}-piperidine-1-carboxylic acid (4-morpholin-4-yl-phenyl)-amide]
22 | 395 | O=C(Nc1ccc(N2CCOCC2)cc1)N1CCC(c2ncnc3cc(OCCN4CCC[C@H]4CO)ccc23)CC1 [Example 153, (S)-4-{7-[2-(2-Hydroxymethyl-pyrrolidin-1-yl)-ethoxy]-quinazolin-4-yl}-piperidine-1-carboxylic acid (4-morpholin-4-yl-phenyl)-amide]
56 | 559 | CC(C)c1ccc(NC(=O)CN2CCC(c3ncnc4ccccc34)CC2)cc1 [Example 16, N-(4-Isopropyl-phenyl)-2-(4-quinazolin-4-yl-piperidin-1-yl)-acetamide]
386 | 67 | O=C(Nc1ccc(N2CCCC2)cc1)N1CCC(c2ncnc3cc(OCC4CCOCC4)ccc23)CC1 [Compound 188, 4-[7-(Tetrahydro-pyran-4-ylmethoxy)-quinazolin-4-yl]-piperidine-1-carboxylic acid (4-pyrrolidin-1-yl-phenyl)-amide]
6 | 74 | CN1CCN(CCOc2ccc3c(C4CCN(C(=O)Nc5ccc(N6CCOCC6)cc5)CC4)ncnc3c2)CC1 [Example 156, 4-{7-[2-(4-Methyl-piperazin-1-yl)-ethoxy]-quinazolin-4-yl}-piperidine-1-carboxylic acid (4-morpholin-4-yl-phenyl)-amide]
6 | 20 | O=C(Nc1ccc(N2CCCC2)cc1)N1CCC(c2ncnc3cc(-n4ccnc4)ccc23)CC1 [Compound 180, 4-(7-Imidazol-1-yl-quinazolin-4-yl)-piperidine-1-carboxylic acid (4-pyrrolidin-1-yl-phenyl)-amide]
44 | 21 | CS(=O)(=O)N1CCN(c2ccc3c(C4CCN(C(=O)Nc5ccc(N6CCCC6)cc5)CC4)ncnc3c2)CC1 [Example 167, 4-[7-(4-Methanesulfonyl-piperazin-1-yl)-quinazolin-4-yl]-piperidine-1-carboxylic acid (4-pyrrolidin-1-yl-phenyl)-amide]
28 | 3 | CCNC(=O)N1CCN(c2ccc3c(C4CCN(C(=O)Nc5ccc(N6CCCC6)cc5)CC4)ncnc3c2)CC1 [Compound 199, 4-{4-[1-(4-Pyrrolidin-1-yl-phenylcarbamoyl)-piperidin-4-yl]-quinazolin-7-yl}-piperazine-1-carboxylic acid ethylamide]
